Assay results as given in patent US20180118708A1, “CYCLIC COMPOUND” (Takeda Pharmaceutical Company Limited, priority 2015, published 2018).

Each compound was assayed against T1, TLR4 (Mus musculus, UniProt Q9QUK6) (assay: Inhibitory effect with respect to NO production (LPS/interferon γ stimulated RAW264.7 cells)). Conditions: test compound 100 nM, LPS 1.25 ng/mL + mouse interferon γ 0.2 ng/mL, nitrite ion in culture supernatant.
T1 construct: endogenous in cells; host or cells: RAW264.7 (murine macrophage cell line)
T1 sequence (Q9QUK6 26-835): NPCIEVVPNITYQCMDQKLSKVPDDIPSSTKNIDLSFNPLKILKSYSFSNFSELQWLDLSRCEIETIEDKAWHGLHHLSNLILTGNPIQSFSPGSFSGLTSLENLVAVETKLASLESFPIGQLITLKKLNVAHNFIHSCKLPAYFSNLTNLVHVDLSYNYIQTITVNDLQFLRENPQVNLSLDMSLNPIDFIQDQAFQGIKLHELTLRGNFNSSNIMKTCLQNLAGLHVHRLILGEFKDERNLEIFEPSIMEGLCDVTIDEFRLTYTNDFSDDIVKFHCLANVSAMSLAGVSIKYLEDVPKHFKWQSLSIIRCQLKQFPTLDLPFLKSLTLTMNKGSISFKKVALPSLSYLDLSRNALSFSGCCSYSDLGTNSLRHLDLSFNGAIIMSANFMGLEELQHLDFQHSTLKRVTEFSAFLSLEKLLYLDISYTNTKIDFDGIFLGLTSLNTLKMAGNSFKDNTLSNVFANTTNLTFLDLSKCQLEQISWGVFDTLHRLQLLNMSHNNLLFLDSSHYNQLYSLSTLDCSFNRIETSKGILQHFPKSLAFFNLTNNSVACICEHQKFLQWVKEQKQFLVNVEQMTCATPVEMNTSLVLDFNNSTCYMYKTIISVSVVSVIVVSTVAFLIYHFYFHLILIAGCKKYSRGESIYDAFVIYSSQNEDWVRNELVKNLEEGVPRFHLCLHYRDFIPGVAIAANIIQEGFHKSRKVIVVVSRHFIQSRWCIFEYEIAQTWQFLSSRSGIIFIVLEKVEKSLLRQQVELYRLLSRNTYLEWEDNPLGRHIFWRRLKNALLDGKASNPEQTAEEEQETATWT
T1 sequence (Q9JHF9 19-160 partner): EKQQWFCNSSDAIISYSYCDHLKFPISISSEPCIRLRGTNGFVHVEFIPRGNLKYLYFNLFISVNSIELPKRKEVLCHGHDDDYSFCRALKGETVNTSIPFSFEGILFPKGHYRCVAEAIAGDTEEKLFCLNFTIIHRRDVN
Format: cell-based, murine
Description: Inhibitory Effect With Respect to NO Production
The inhibitory effect on TLR4 was determined using the inhibition rate due to the test compound with respect to NO production as a result of addition of lipopolysaccharide (LPS) using murine macrophage cell line RAW264.7. The cells were adjusted to 2×10^6 cells/mL using RPM1-1640 culture medium (phenol red free) supplemented with 10% inactivated bovine fetal serum, and were plated on 384 well plate so as to contain 6×10^4 cells/30 μL per well. Thereafter the cells were cultured at 37° C. overnight under 5% CO2/95% air. The test compound dissolved in DMSO was diluted 200 times using RPM1-1640 culture medium and adjusted so as to form a compound concentration of 500 nM. The prepared test compound 10 μL (final concentration 100 nM) was added to the cells, and LPS (Sigma) and mouse interferon γ (Wako Pure Chemicals) were added in amounts of 10 μL so as to form final concentrations of 1.25 ng/mL and 0.2 ng/mL respectively. The cells were further cultured overnight, and then the nitrite ion (stable NO metabolite) concentration in the culture supernatant was measured as an index of NO production. The nitrite ion concentration was assayed by adding 10 μL of 20 μg/mL 2,3-diamino naphthalene (DAN) dissolved in 0.2N HCl to 20 μL culture supernatant, incubating at room temperature for ten minutes, and then adding 10 μL of 0.5N NaOH, and measuring the fluorescent value at 460 nm (excitation wavelength 355 nm) using an EnVision plate reader (Perkin Elmer). The NO production inhibition rate (%) was calculated using the value without the addition of stimulating agent as control of 100% inhibition, and the value without the addition of the compound as control of 0% inhibition.

`CCOC(=O)C1=CC2(CCC1S(=O)(=O)Cc1cc(Cl)ccc1F)O[C@H](CO)[C@@H](CO)O2` (stereo partly drawn) [Compound 4, ethyl (2R,3R)-8-((5-chloro-2-fluorobenzyl)sulfonyl)-2,3-bis(hydroxymethyl)-1,4-dioxaspiro[4.5]dec-6-ene-7-carboxylate] and `CCOC(=O)C1=CC2(CCC1S(=O)(=O)Cc1ccc(F)c(Cl)c1)O[C@H](CO)[C@@H](CO)O2` (stereo partly drawn) [Compound 5, ethyl (2R,3R)-8-((3-chloro-4-fluorobenzyl)sulfonyl)-2,3-bis(hydroxymethyl)-1,4-dioxaspiro[4.5]dec-6-ene-7-carboxylate] are the same in “NO production inhibitory effect at 100 nM (% inhibition)” value: 100 % inhibition for the first, 100 % inhibition for the second.

Going from `CCOC(=O)C1=CC2(CCC1S(=O)(=O)Cc1ccc(F)cc1Cl)O[C@H](COC(C)=O)[C@@H](COC(C)=O)O2` (stereo partly drawn) [Compound 10, ethyl (2R,3R)-2,3-bis(acetoxymethyl)-8-((2-chloro-4-fluorobenzyl)sulfonyl)-1,4-dioxaspiro[4.5]dec-6-ene-7-carboxylate] to `CCOC(=O)C1=CC2(CCC1S(=O)(=O)Cc1ccc(F)cc1Cl)O[C@H](COC(=O)CN)[C@@H](COC(=O)CN)O2` (stereo partly drawn) [Compound 16, ethyl (2R,3R)-2,3-bis((2-aminoacetoxy)methyl)-8-((2-chloro-4-fluorobenzyl)sulfonyl)-1,4-dioxaspiro[4.5]dec-6-ene-7-carboxylate], the “NO production inhibitory effect at 100 nM (% inhibition)” value falls from 110 % inhibition to 100 % inhibition.

Compared with `CCOC(=O)C1=CC2(CCC1S(=O)(=O)Cc1ccc(F)cc1Cl)O[C@H](COC)[C@@H](COC)O2` (stereo partly drawn) [Compound 11, ethyl (2R,3R)-8-((2-chloro-4-fluorobenzyl)sulfonyl)-2,3-bis(methoxymethyl)-1,4-dioxaspiro[4.5]dec-6-ene-7-carboxylate], `CCOC(=O)C1=CC2(CCC1S(=O)(=O)Cc1ccc(F)cc1Cl)O[C@H](C)[C@@H](C)O2` (stereo partly drawn) [Compound 18, ethyl (2R,3R)-8-((2-chloro-4-fluorobenzyl)sulfonyl)-2,3-dimethyl-1,4-dioxaspiro[4.5]dec-6-ene-7-carboxylate] is lower in “NO production inhibitory effect at 100 nM (% inhibition)” value: 110 % inhibition for the first, 100 % inhibition for the second.

`CCOC(=O)C1=CC2(CCC1S(=O)(=O)Cc1cccc(C)c1)O[C@H](CO)[C@@H](CO)O2` (stereo partly drawn) [Compound 12, ethyl (2R,3R)-2,3-bis(hydroxymethyl)-8-((3-methylbenzyl)sulfonyl)-1,4-dioxaspiro[4.5]dec-6-ene-7-carboxylate] and `CCOC(=O)C1=CC2(CCC1S(=O)(=O)Cc1cccc(OC)c1)O[C@H](CO)[C@@H](CO)O2` (stereo partly drawn) [Compound 13, ethyl (2R,3R)-2,3-bis(hydroxymethyl)-8-((3-methoxybenzyl)sulfonyl)-1,4-dioxaspiro[4.5]dec-6-ene-7-carboxylate] are the same in “NO production inhibitory effect at 100 nM (% inhibition)” value: 100 % inhibition for the first, 100 % inhibition for the second.

`CCOC(=O)C1=CC2(CCC1S(=O)(=O)Cc1ccc(F)cc1Br)O[C@H](CO)[C@@H](CO)O2` (stereo partly drawn) [Compound 17, ethyl (2R,3R)-8-((2-bromo-4-fluorobenzyl)sulfonyl)-2,3-bis(hydroxymethyl)-1,4-dioxaspiro[4.5]dec-6-ene-7-carboxylate] and `CCOC(=O)C1=CC2(CCC1S(=O)(=O)Cc1cc(F)ccc1Cl)O[C@H](CO)[C@@H](CO)O2` (stereo partly drawn) [Compound 21, ethyl (2R,3R)-8-((2-chloro-5-fluorobenzyl)sulfonyl)-2,3-bis(hydroxymethyl)-1,4-dioxaspiro[4.5]dec-6-ene-7-carboxylate] are the same in “NO production inhibitory effect at 100 nM (% inhibition)” value: 100 % inhibition for the first, 100 % inhibition for the second.

First: CCOC(=O)C1=CC2(CCC1S(=O)(=O)Cc1ccc(F)cc1Cl)OCCO2 (stereo not drawn) [Compound 22, ethyl 8-((2-chloro-4-fluorobenzyl)sulfonyl)-1,4-dioxaspiro[4.5]dec-6-ene-7-carboxylate]
Second: CCOC(=O)C1=CC2(CCC1S(=O)(=O)Cc1ccc(F)cc1Cl)OC[C@@H](CNC(=O)OC(C)(C)C)O2 (stereo partly drawn) [Compound 27, ethyl (2R)-2-(((tert-butoxycarbonyl)amino)methyl)-8-((2-chloro-4-fluorobenzyl)sulfonyl)-1,4-dioxaspiro[4.5]dec-6-ene-7-carboxylate]
The “NO production inhibitory effect at 100 nM (% inhibition)” value of the first is higher: 110 % inhibition for the first, 98 % inhibition for the second.

First: CCOC(=O)C1=CC2(CCC1S(=O)(=O)Cc1ccccc1Cl)O[C@@H](CO)[C@H](CO)O2 (stereo partly drawn) [Compound 23, ethyl (2S,3S)-8-((2-chlorobenzyl)sulfonyl)-2,3-bis(hydroxymethyl)-1,4-dioxaspiro[4.5]dec-6-ene-7-carboxylate]
Second: CCOC(=O)C1=CC2(CCC1S(=O)(=O)Cc1c(C)cccc1Cl)O[C@@H](CO)[C@H](CO)O2 (stereo partly drawn) [Compound 26, ethyl (2S,3S)-8-((2-chloro-6-methylbenzyl)sulfonyl)-2,3-bis(hydroxymethyl)-1,4-dioxaspiro[4.5]dec-6-ene-7-carboxylate]
The “NO production inhibitory effect at 100 nM (% inhibition)” value of the first is lower: 100 % inhibition for the first, 110 % inhibition for the second.

For `C#CCCCCOC[C@@H]1COC2(C=C(C(=O)OCC)C(S(=O)(=O)Cc3ccc(F)cc3Cl)CC2)O1` (stereo partly drawn) [Compound 28, ethyl (2R)-8-((2-chloro-4-fluorobenzyl)sulfonyl)-2-((hex-5-yn-1-yloxy)methyl)-1,4-dioxaspiro[4.5]dec-6-ene-7-carboxylate], the “NO production inhibitory effect at 100 nM (% inhibition)” value was 94 % inhibition.

Same assay, conditions: test compound 100 nM, LPS 1.25 ng/mL + mouse interferon γ 0.2 ng/mL, nitrite ion in culture supernatant, 0.1 µM

First: CCOC(=O)C1=CC2(CCC1S(=O)(=O)Cc1ccc(F)cc1Cl)O[C@@H](CO)[C@H](CO)O2 (single isomer, unassigned) [Compound 6]
Second: CCOC(=O)C1=CC2(CCC1S(=O)(=O)Cc1ccc(F)cc1Cl)O[C@H](CO)[C@@H](CO)O2 (single isomer, unassigned) [Compound 15]
The “NO production inhibitory effect at 100 nM (% inhibition)” value of the first is higher: 92 % inhibition for the first, 75 % inhibition for the second.

First: CCOC(=O)C1=CC2(CCC1S(=O)(=O)C(C)c1ccc(F)cc1Cl)O[C@H](CO)[C@@H](CO)O2 (single isomer, unassigned) [Compound 19]
Second: CCOC(=O)C1=CC2(CCC1S(=O)(=O)Cc1ccc(F)cc1Cl)OC[C@@H](CO)O2 (stereo partly drawn) [Compound 8, ethyl (2R)-8-((2-chloro-4-fluorobenzyl)sulfonyl)-2-(hydroxymethyl)-1,4-dioxaspiro[4.5]dec-6-ene-7-carboxylate]
The “NO production inhibitory effect at 100 nM (% inhibition)” value of the first is higher: 110 % inhibition for the first, 100 % inhibition for the second.

Compared with `CCOC(=O)C1=CC2(CCC1S(=O)(=O)C(C)c1ccc(F)cc1Cl)O[C@H](CO)[C@@H](CO)O2` (single isomer, unassigned) [Compound 20], `CCOC(=O)C1=CC2(CCC1S(=O)(=O)Cc1ccc(F)cc1Cl)OC[C@@H](CO)O2` (stereo partly drawn) [Compound 9, ethyl (2R)-8-((2-chloro-4-fluorobenzyl)sulfonyl)-2-(hydroxymethyl)-1,4-dioxaspiro[4.5]dec-6-ene-7-carboxylate] is higher in “NO production inhibitory effect at 100 nM (% inhibition)” value: 77 % inhibition for the first, 110 % inhibition for the second.
